Experiments:
Assay in all cases: relative viability (nuclei count vs DMSO), 5 days (fraction); higher = more cells survive
[1] = compound: Nc1ccccc1NC(=O)c1ccc(CNC(=O)OCc2cccnc2)cc1 [Entinostat] + COc1cc2c(Oc3ccc(NC(=O)C4(C(=O)Nc5ccc(F)cc5)CC4)cc3F)ccnc2cc1OCCCN1CCOCC1 [Foretinib] (partner 0.25 µM)
Method in brief: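 Lung cancer cell lines, seeded in 1536-well plates, were treated the following day by pin tool with a single drug or with five library-drug doses (not always all listed) in √10 steps on top of a fixed anchor-drug dose. Cells were fixed and nuclei stained in one step after 5 days, and nuclei were counted. Relative viability is the nuclei count for treated wells divided by that for vehicle wells, reported as medians of duplicate plates.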

[2] = compound: C1COCCN1C2=NC(=NC3=C2OC4=C3C=CC=N4)C5=CC(=CC=C5)NC(=O)C6=CN=C(C=C6)N
Method in brief: (§1)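 In 1536-well plates, lung cancer cell lines rested overnight at 37 °C before five library-drug doses (not always all listed), √10 apart, were pinned onto vehicle-anchored plates. Nuclei were counted with MetaXpress from 4× Hoechst images taken after 5 days without medium change. Viability compares treated-well with vehicle-well nuclei as a median over plates, and plates needed control CV below 25% plus at least one doubling to pass.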

[3] = compound: CN1CCC(CNc2ccc3ncc(-c4cccc(OC(F)(F)F)c4)n3n2)CC1 [SGI-1776]
Method in brief: as §1

[4] = compound: Nc1ccccc1NC(=O)c1ccc(CNC(=O)OCc2cccnc2)cc1 [Entinostat]
Method in brief: as §1

| Cell Line | relative viability ([1]; first compound 0.02 µM) | relative viability ([1]; first compound 0.06325 µM) | relative viability ([1]; first compound 0.2 µM) | relative viability ([1]; first compound 0.6325 µM) | relative viability ([1]; first compound 2 µM) | relative viability ([2]; 0.02 µM) | relative viability ([2]; 0.06325 µM) | relative viability ([2]; 0.2 µM) | relative viability ([2]; 0.6325 µM) | relative viability ([2]; 2 µM) | relative viability ([3]; 0.08 µM) | relative viability ([3]; 0.8 µM) | relative viability ([3]; 2.53 µM) | relative viability ([3]; 8 µM) | relative viability ([4]; 0.02 µM) | relative viability ([4]; 0.06325 µM) | relative viability ([4]; 0.2 µM) | relative viability ([4]; 0.6325 µM) | relative viability ([4]; 2 µM) |
| --- | --- | --- | --- | --- | --- | --- | --- | --- | --- | --- | --- | --- | --- | --- | --- | --- | --- | --- | --- |
| NCI-H2170 | 0.978 | 1.05 | 0.964 | 0.597 | 0.613 | 1 | 1.07 | 1.06 | 0.995 | 0.773 | 0.947 | 1 | 0.961 | 0.893 | 0.995 | 0.996 | 0.984 | 0.708 | 0.525 |
| NCI-H522 | – | – | – | – | – | 0.945 | 0.927 | 0.888 | 0.988 | 0.955 | 1.04 | 1.01 | 0.875 | 0.827 | 1.03 | 0.967 | 1.19 | 1.11 | 0.646 |
| LOU-NH91 | 0.937 | 0.984 | 0.919 | 0.844 | 0.779 | 0.955 | 1.01 | 0.948 | 0.925 | 0.897 | 1.02 | 1.03 | 0.969 | 0.713 | 1.05 | 1.11 | 1 | 0.897 | 0.739 |
| NCI-H1355 | 0.903 | 0.91 | 0.751 | 0.695 | 0.571 | 0.967 | 1.04 | 0.998 | 0.959 | 0.888 | 1.01 | 1.06 | 0.994 | 0.888 | 0.975 | 0.918 | 0.823 | 0.638 | 0.523 |
| NCI-H322M | 0.978 | 1.16 | 1.15 | 0.993 | 0.854 | 0.903 | 0.923 | 0.944 | 0.854 | 0.725 | 0.975 | 1.01 | 1.05 | 0.69 | 1.02 | 1.11 | 1.14 | 0.961 | 0.859 |
| NCI-H1395 | 1 | 1.03 | 0.994 | 0.846 | 0.68 | 0.846 | 0.935 | 0.724 | 0.801 | 0.821 | 1.04 | 1.04 | 0.827 | 0.621 | 1.1 | 1.15 | 0.962 | 0.745 | 0.601 |
| NCI-H2023 | 0.765 | 0.749 | 0.408 | 0.162 | 0.11 | 1.08 | 1.13 | 0.85 | 0.83 | 0.496 | 0.983 | 1.04 | 0.853 | 0.598 | 0.849 | 0.786 | 0.495 | 0.166 | 0.0931 |
| NCI-H1666 | 1.06 | 1.02 | 0.964 | 0.537 | 0.366 | 1.08 | 0.994 | 0.975 | 0.826 | 0.764 | 0.98 | 1.02 | 0.98 | 0.899 | 1.1 | 1.05 | 1.08 | 0.799 | 0.514 |
| HARA | 0.903 | 0.913 | 1.01 | 0.341 | 0.416 | 1.06 | 0.834 | 1.02 | 0.976 | 0.908 | 1.02 | 1.13 | 1 | 0.75 | 0.955 | 1.06 | 1.18 | 0.805 | 0.488 |
| NCI-H1944 | 1 | 0.711 | 0.472 | 0.364 | 0.218 | 0.96 | 1.01 | 0.931 | 0.985 | 0.918 | 0.968 | 1.06 | 0.981 | 0.739 | 0.933 | 0.851 | 0.714 | 0.321 | 0.261 |
| NCI-H2405 | 1.06 | 1.11 | 0.979 | 0.902 | 0.614 | 0.987 | 1.05 | 0.97 | 0.953 | 0.779 | 1.04 | 1.08 | 0.793 | 0.826 | 1.03 | 1.15 | 0.972 | 0.915 | 0.609 |
| 201T | 1.12 | 1.22 | 1.2 | 0.958 | 0.453 | 0.963 | 0.994 | 0.985 | 1 | 0.897 | 1.01 | 0.991 | 0.964 | 0.891 | 1.04 | 1.04 | 1.03 | 0.712 | 0.624 |
| PC-3 [JPC-3] | 0.988 | 0.977 | 0.871 | 0.732 | 0.41 | 1.06 | 1.05 | 1.06 | 1.03 | 0.927 | 1.07 | 1.09 | 1.01 | 0.805 | 1.03 | 1.01 | 1.02 | 0.57 | 0.488 |
| Calu-6 | 0.889 | 0.849 | 0.873 | 0.565 | 0.513 | 1.05 | 1.04 | 1.01 | 0.998 | 0.685 | 1.06 | 1.02 | 0.976 | 0.852 | 1.02 | 1.02 | 1.02 | 0.761 | 0.544 |
| NCI-H1734 | 0.883 | 0.939 | 0.929 | 0.773 | 0.603 | 0.994 | 1.06 | 0.929 | 0.931 | 0.613 | 0.946 | 0.945 | 1.04 | 0.842 | 1.04 | 1.16 | 1.04 | 0.862 | 0.628 |
| HCC-44 | – | – | – | – | – | 0.986 | 0.919 | 0.97 | 1.07 | 0.959 | 1.02 | 0.957 | 0.93 | 0.962 | 0.99 | 0.858 | 0.773 | 0.414 | 0.275 |
| NCI-H1648 | – | – | – | – | – | 0.93 | 0.788 | 0.853 | 0.538 | 0.794 | 1 | 0.884 | 0.844 | 0.767 | 1.09 | 1 | 0.823 | 0.639 | 0.526 |
| NCI-H1792 | – | – | – | – | – | 0.953 | 0.965 | 0.893 | 0.655 | 0.393 | 1.01 | 0.984 | 0.859 | 0.662 | 1.16 | 1.1 | 1.02 | 0.649 | 0.451 |

— the supplement of paper PMC10307832
